We go through ten compounds from US8497269B2, “Phthalazine compounds as p38 map kinase modulators and methods of use thereof” (Amgen Inc., priority 2008, dated 2013).

The target in one assay is human p38α (Homo sapiens, UniProt Q16539). In words: Purified and activated recombinant human p38α assay (HTRF). In kind it is biochemical. Particulars: 1 nM p38α, 50 μM ATP, 100 nM GST-ATF2-Avitag, 1 hour at RT, read-out: p38a IC50 IC50. As for the experimental part: Purified and Activated Recombinant Human p38α Assay
Chain of human p38α (Q16539 whole entry): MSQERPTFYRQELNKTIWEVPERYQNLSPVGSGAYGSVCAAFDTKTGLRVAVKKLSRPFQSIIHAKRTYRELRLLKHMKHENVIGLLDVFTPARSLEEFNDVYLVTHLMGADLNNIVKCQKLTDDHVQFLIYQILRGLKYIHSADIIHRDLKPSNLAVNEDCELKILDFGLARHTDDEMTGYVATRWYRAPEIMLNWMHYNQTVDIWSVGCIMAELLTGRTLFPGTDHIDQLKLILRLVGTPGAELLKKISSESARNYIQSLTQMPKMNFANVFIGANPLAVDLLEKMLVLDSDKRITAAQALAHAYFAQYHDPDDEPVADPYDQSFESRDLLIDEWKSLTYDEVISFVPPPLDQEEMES
Kinase Reaction Buffer: Kinase reaction buffer for p38α HTRF assays consists of 50 mM Tris-pH 7.5, 5 mM MgCl2, 0.1 mg/mL BSA, 100 μM Na3VO4 and 0.5 mM DTT.
HTRF Detection Buffer: HTRF detection buffer contains 100 mM HEPES-pH 7.5, 100 mM NaCl, 0.1% BSA, 0.05% Tween-20, and 10 mM EDTA.
Serial Dilution of Compounds: Compounds were dissolved in 100% DMSO and serially diluted (3 fold, 10 point) in a polypropylene 96-well microtiter plate (drug plate). The final starting concentration of compounds in the p38α enzymatic assays was 1 μM. Columns 6 and 12 (HI controls and LO controls respectively) in the drug plate were reserved as controls and contained only DMSO. Kinase Reaction: The p38α kinase reactions were carried out in a polypropylene 96-well black round bottom assay plate in total volume of 30 μL kinase reaction buffer. Appropriate concentration of purified and activated enzyme (recombinant human) was mixed with indicated concentration of ATP and 100 nM GST-ATF2-Avitag, in the presence or absence (HI control) of Compound. See table below for actual concentrations. In the absence of substrate, the background was measured as LO control. The reaction was allowed to incubate for 1 hour at RT. Assay Reagent Concentrations: The final reagent concentrations were 1 nM p38α and 50 μM ATP. […] After 60 minutes incubation at room temperature, the assay plate was read in a Discovery Plate Reader. The wells were excited with coherent 320 nm light and the ratio of delayed ([…] post excitation) emissions at […] (native europium fluorescence) and 665 nm (europium fluorescence transferred to allophycocyanin—an index of substrate phosphorylation) was determined (Park et al, 1999). Data Analysis: The proportion of substrate phosphorylated in the kinase reaction in the presence of compound compared with that phosphorylated in the presence of DMSO vehicle alone (HI control) was calculated using the formula: % control (POC)=(compound−average LO)/(average HI−average LO)*100. Data (consisting of POC and inhibitor concentration in μM) was fitted to a 4-parameter equation (y=A+((B−A)/(1+((x/C)^D))), where A is the minimum y (POC) value, B is the maximum y (POC), C is the x (compound concentration) at the point of inflection and D is the slope factor, using a Levenburg-Marquardt non-linear regression algorithm.
The inhibition constant (Ki) of the inhibitor was estimated from the IC50 (compound concentration at the point of inflection C) using the Cheng-Prussof equation: Ki=IC50/(1+S/Km), where S is the ATP substrate concentration, and Km is the Michaelis constant for ATP as determined experimentally. All results were expressed as the mean±the standard error of the mean. Data acquisition and non-linear regression algorithms were performed using Activity Base v5.2 and XL-fit software v4.1 respectively. All data was archived using Activity Base v5.2 software.
(In general: Time-resolved FRET reads energy transfer from a long-lived donor to a nearby acceptor.)

Assay [1] concerns TNF-α induced IL-8 production in human whole blood. In words: Inhibition of TNF-α induced IL-8 in 50% human whole blood. It is filed as cell-based. The conditions noted are these: 1 nM TNF-α, secreted IL-8, 16-18 hours, read-out: WB TNF/IL8 IC50. On the procedure: Inhibition of TNF-α Induced IL-8 in 50% Human Whole Blood
Test compounds were evaluated in vitro for the ability to inhibit the production of secreted IL-8 by whole blood activated with TNF-α. Fresh human whole blood was obtained from healthy, non-medicated volunteers in sodium heparin tubes.
Compound Dilution—Assay Procedure
Test compounds are serially diluted 1:3 in DMSO and then diluted 1:250 into R10 (RPMI 1640, 10% human serum AB, 1× pen/strep/glutamine) to the 4× working concentration to be used in the assay. 100 ul heparinized whole blood is plated into wells of 96 well flat bottom plates. 50 ul of either 4× compound or DMSO control (Final DMSO concentration is 0.1%) are added to the appropriate wells. Plates are incubated for 1 hour at 37 degrees Celsius. 50 ul of 4×TNF-α (4 nM TNF-α, for a final concentration of 1 nM) or control (media alone) is added to the appropriate wells (Total volume=200 ul). Plates are incubated overnight (16-18 hours). 100 ul of supernatant is collected and stored in 96-well round bottom polypropylene plates at −80 degrees Celsius or assayed immediately for IL-8.
Cytokines are measured on antibody (Ab) sandwich ECL based 96-well detection plates. 20 ul of supernatant are added to plate and plate is sealed and shaken at RT for 1 hour. 130 ul of detection Ab cocktail is added and plates are sealed and shaken for 1 hour in the dark at RT. Plates are read on MSD Sector HTS instrument. Data are analyzed and IC50 values generated using Activity Base and Xl-fit programs.

`Cc1cc(S(C)(=O)=O)c(Cl)cc1-c1nncc2cc(Nc3ccc(F)cc3F)ccc12` [Example 26, 1-(5-chloro-2-methyl-4-(methylsulfonyl)phenyl)-N-(2,4-difluorophenyl)-6-phthalazinamine]: the IC50 amounted to 0.7 nM on human p38α and 4.2 nM in assay [1].
Regarding `Cc1cc(F)ccc1-c1nncc2cc(Nc3ccccc3)ccc12` [Example 27, 1-(4-fluoro-2-methylphenyl)-N-phenyl-6-phthalazinamine], the IC50 turned out to be 0.7 nM at human p38α and 2.7 nM in assay [1].
Taken in the same sequence, the figures for `COc1ncccc1-c1nncc2cc(Nc3ccc(F)cc3)ccc12` [Example 28, N-(4-fluorophenyl)-1-(2-(methyloxy)-3-pyridinyl)-6-phthalazinamine] were 0.9 nM and 1.6 nM.
Regarding `Cc1ncccc1-c1nncc2cc(Nc3ccc(F)cc3)ccc12` [Example 29, N-(4-fluorophenyl)-1-(2-methyl-3-pyridinyl)-6-phthalazinamine], the IC50 turned out to be 0.7 nM at human p38α and 1.8 nM in assay [1].
With `Cc1noc(C)c1-c1nncc2cc(Nc3ccc(F)cc3)ccc12` [Example 30, 1-(3,5-dimethyl-4-isoxazolyl)-N-(4-fluorophenyl)-6-phthalazinamine], the IC50 on human p38α was 0.9 nM; in assay [1], 4.9 nM.
Taken in the same sequence, the figures for `Fc1ccc(Nc2ccc3c(-c4ccccc4Cl)nncc3c2)cc1` [Example 31, 1-(2-chlorophenyl)-N-(4-fluorophenyl)-6-phthalazinamine] were 0.7 nM and 1.7 nM.
Taken in the same sequence, the figures for `Cn1nccc1-c1nncc2cc(Nc3ccc(F)cc3)ccc12` [Example 32, N-(4-fluorophenyl)-1-(1-methyl-1H-pyrazol-5-yl)-6-phthalazinamine] were 1 nM and 4.9 nM.
For `Cc1cc(S(C)(=O)=O)ccc1-c1nncc2cc(Nc3ccc(F)cn3)ccc12` [Example 33, N-(5-fluoro-2-pyridinyl)-1-(2-methyl-4-(methylsulfonyl)phenyl)-6-phthalazinamine], the results for the IC50 (on human p38α; in assay [1]) were 0.8 nM and 20 nM, respectively.
As for `c1ccc(Nc2ccc3c(N4CCOCC4)nncc3c2)cc1` [Example 34, 1-(4-morpholinyl)-N-phenyl-6-phthalazinamine], the IC50 amounted to 8 nM on human p38α and 16 nM in assay [1].
For “N-(4-fluorophenyl)-1-((2,2,2-trifluoro-1-methylethyl)oxy)-6-phthalazinamine [Example 23]” the same measures were 9.1 nM and 137 nM.
